Reference: US20170152269A1, “FUSED BICYCLIC COMPOUNDS AND THEIR USE AS CDK INHIBITORS” (priority 2016, published 2017)
Counter-ions that a name gives are not always drawn.

How the values were obtained:
[1] = biological target: T1, CDK4 (Homo sapiens, UniProt P11802); test: Lance TR-FRET kinase assay, CDK4; type: biochemical; details: ATP 100 μM, 60 min, read-out: CDK 4 inhibitory activity (IC50)
T1 construct: purchased ThermoFisher (Waltham, Mass.)
Method: (§1) Inhibitory activity of compounds against CDK1/2/4/5/6/7 was assessed using Lance TR-FRET assay kits from Perkin Elmer Life Sciences (Waltham, Mass.). CDK1/2/4/5/6/7 enzymes were purchased from ThermoFisher (Waltham, Mass.). […] Final concentrations of substrates and DMSO were 100 nM and 0.5%, respectively. Concentrations of ATP and different CDK enzymes were adjusted accordingly to achieve optimal enzymatic activities. Final CDK concentrations were 100, 500, 600, 100, 50, and 200 ng/well and ATP concentrations were 30, 50, 100, 20, 100, and 50 μM for CDK1/2/4/5/6/7, respectively. Assay plates were covered to protect from light and spun for 1 min at 700 RPM. Reactions were allowed to perform for 60 minutes in dark with gentle shaking at room temperature after which 5 μL of 40 mM EDTA in detection buffer was added to stop reactions followed 5 μL of the Eu labeled antibodies giving final concentrations of 2 nM to detect the phosphorylation of the peptide substrates. […] The percent of inhibition was calculated from the means of data points using the formula: 100−(Signalcompound−NoSignalbackground)*100/(Signalvehicle−NoSignalbackground). The IC50s were determined with GraphPad Prism by the non-linear sigmoidal curve fitting of data from 10 doses.

[2] = biological target: T2, CDK9/cyclin T1 (Homo sapiens, UniProt P50750); test: LanthaScreen Eu kinase binding assay, CDK9; details: tracer 236 displacement, CDK9/cyclin T1 5 nM, 1 hour; read-out: CDK 9 inhibitory activity (IC50)
T2 construct: purchased ThermoFisher (Waltham, Mass.)
Method: (§2) Time Resolved-Fluorescent Resonance Energy Transfer (TR-FRET) was used to determine inhibitory ability of compounds A1˜A19, B1s and B1˜B12 against the enzymatic activity of CDK1, CDK2, CDK4, CDK5, CDK6, CDK7, and CDK9.
The CDK9 kinase inhibitory activity of compounds was tested in the LanthaScreen Eu kinase binding assay from ThermoFisher. LanthaScreen® Eu Kinase binding assays are based on the binding and displacement of a proprietary, Alexa Fluor® 647-labeled, ATP-competitive kinase inhibitor scaffold (kinase tracer) to CDK9. CDK9/cyclin T1, Kinase tracer 236 and LanthaScreen® Eu-anti-His Antibody were purchased form ThermoFisher (Waltham, Mass.). 5 μL of CDK9/cyclin T1 (final 5 nM)/antibody (final 2 nM) mixture, 5 μL of compound in kinase buffer, and 5 μL of tracer (final 30 nM) were added to wells of a white OptiPlate-384 plate in this specific order. Assay plates were covered to protect from light, spun for 1 min at 700 RPM and incubated at room temperature for 1 hour. Assay plates were read with the EnVision™ Multilabel Reader in TR-FRET mode (excitation at 320 nm and emission at 665 nm). The percent of inhibition was calculated from the means of data points using the formula: 100−(Signalcompound−NoSignalbackgound)*100/(Signalvehicle−NoSignalbackground). The IC50s were determined with GraphPad Prism by the non-linear sigmoidal curve fitting of data from 10 doses.

[3] = biological target: T3, CDK6 (Homo sapiens, UniProt Q00534); test: Lance TR-FRET kinase assay, CDK6; type: biochemical
T3 construct: purchased ThermoFisher (Waltham, Mass.)
Method: as §2
(§3) Inhibitory activity of compounds against CDK1/2/4/5/6/7 was assessed using Lance TR-FRET assay kits from Perkin Elmer Life Sciences (Waltham, Mass.). CDK1/2/4/5/6/7 enzymes were purchased from ThermoFisher (Waltham, Mass.). 2.5 μL of compound solutions and 2.5 μL of enzyme solutions in kinase assay buffer, which was 50 mM HEPES (pH 7.5) with 1 mM EGTA, 1 mM MgCl2, 2 mM DTT, and 0.01% Tween-20, were added into a white OptiPlate-384 plate followed by adding 5 μL of fluorescently labeled peptide substrates (Ulight-4E-BP1 for CDK4/6 and Ulight-MBP for […]) and ATP mixture solutions. Final concentrations of substrates and DMSO were 100 nM and 0.5%, respectively. Concentrations of ATP and different CDK enzymes were adjusted accordingly to achieve optimal enzymatic activities. Final CDK concentrations were 100, 500, 600, 100, 50, and 200 ng/well and ATP concentrations were 30, 50, 100, 20, 100, and 50 μM for CDK1/2/4/5/6/7, respectively. Assay plates were covered to protect from light and spun for 1 min at 700 RPM. Reactions were allowed to perform for 60 minutes in dark with gentle shaking at room temperature after which 5 μL of 40 mM EDTA in detection buffer was added to stop reactions followed 5 μL of the Eu labeled antibodies giving final concentrations of 2 nM to detect the phosphorylation of the peptide substrates. Assay plates were read with the EnVision™ Multilabel Reader in TR-FRET mode (excitation at 320 nm and emission at 665 nm). The percent of inhibition was calculated from the means of data points using the formula: 100−(Signalcompound−NoSignalbackground)*100/(Signalvehicle−NoSignalbackground). The IC50s were determined with GraphPad Prism by the non-linear sigmoidal curve fitting of data from 10 doses.

[4] = biological target: T4, CDK2 (Homo sapiens, UniProt P24941); test: Lance TR-FRET kinase assay, CDK2; type: biochemical; details: ATP 50 μM, 60 min, read-out: CDK 2 inhibitory activity (IC50)
T4 construct: purchased ThermoFisher (Waltham, Mass.)
Method: as §2, §3

[5] = biological target: T5, CDK7 (Homo sapiens, UniProt P50613); test: Lance TR-FRET kinase assay, CDK7; type: biochemical; details: ATP 50 μM, 60 min, read-out: CDK 7 inhibitory activity (IC50)
T5 construct: purchased ThermoFisher (Waltham, Mass.)
Method: as §1

[6] = biological target: T6, CDK1 (Homo sapiens, UniProt P06493); test: Lance TR-FRET kinase assay, CDK1; type: biochemical; details: ATP 30 μM, 60 min, read-out: CDK 1 inhibitory activity (IC50)
T6 construct: purchased ThermoFisher (Waltham, Mass.)
Method: as §2, §3

T1 sequence (P11802 whole entry): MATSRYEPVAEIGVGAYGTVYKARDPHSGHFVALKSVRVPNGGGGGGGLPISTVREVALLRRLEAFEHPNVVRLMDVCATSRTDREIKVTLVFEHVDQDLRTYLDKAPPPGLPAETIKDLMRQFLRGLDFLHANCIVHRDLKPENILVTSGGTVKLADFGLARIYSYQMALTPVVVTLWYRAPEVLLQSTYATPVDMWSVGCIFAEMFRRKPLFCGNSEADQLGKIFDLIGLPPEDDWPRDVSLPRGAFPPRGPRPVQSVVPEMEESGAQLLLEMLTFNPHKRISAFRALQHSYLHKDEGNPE
T1 sequence (P24385 whole entry partner): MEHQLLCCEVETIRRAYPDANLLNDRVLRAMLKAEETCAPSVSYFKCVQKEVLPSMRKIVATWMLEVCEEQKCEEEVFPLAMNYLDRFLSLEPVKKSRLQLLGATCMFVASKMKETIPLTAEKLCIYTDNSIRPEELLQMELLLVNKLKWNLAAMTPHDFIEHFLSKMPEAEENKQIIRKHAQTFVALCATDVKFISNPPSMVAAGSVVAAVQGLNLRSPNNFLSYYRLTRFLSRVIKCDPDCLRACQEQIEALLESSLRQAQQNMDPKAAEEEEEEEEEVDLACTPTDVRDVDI
T6 sequence (P06493 whole entry): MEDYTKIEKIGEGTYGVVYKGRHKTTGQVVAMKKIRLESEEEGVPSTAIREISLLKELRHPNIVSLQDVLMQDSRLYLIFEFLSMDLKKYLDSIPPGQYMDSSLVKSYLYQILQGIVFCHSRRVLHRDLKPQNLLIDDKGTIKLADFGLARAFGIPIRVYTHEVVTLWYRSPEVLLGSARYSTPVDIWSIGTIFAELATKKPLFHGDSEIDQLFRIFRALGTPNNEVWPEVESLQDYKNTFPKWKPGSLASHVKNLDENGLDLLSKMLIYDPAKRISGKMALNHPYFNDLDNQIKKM
T6 sequence (P14635 whole entry partner): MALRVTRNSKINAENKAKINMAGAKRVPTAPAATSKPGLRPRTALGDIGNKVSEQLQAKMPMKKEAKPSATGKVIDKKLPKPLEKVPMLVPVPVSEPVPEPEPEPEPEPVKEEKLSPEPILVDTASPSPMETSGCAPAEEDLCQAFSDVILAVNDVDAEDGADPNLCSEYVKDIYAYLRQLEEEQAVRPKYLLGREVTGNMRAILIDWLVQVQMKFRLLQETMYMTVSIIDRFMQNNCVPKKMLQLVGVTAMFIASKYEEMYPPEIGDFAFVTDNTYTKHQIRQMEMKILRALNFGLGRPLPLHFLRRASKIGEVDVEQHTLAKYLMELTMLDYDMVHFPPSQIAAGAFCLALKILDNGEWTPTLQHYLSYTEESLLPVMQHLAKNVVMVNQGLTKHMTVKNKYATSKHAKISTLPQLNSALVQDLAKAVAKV
T3 sequence (Q00534 whole entry): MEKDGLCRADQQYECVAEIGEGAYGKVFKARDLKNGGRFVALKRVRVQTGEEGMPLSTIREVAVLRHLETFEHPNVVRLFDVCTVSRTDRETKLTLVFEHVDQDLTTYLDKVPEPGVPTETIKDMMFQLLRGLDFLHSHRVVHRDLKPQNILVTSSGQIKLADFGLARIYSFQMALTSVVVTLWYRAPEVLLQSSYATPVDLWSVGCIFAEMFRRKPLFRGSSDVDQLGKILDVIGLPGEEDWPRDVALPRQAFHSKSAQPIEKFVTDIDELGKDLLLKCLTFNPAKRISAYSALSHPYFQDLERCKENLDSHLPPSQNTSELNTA
T3 sequence (P24385 whole entry partner): as the sequence (P24385 whole entry partner) above
T2 sequence (P50750 whole entry): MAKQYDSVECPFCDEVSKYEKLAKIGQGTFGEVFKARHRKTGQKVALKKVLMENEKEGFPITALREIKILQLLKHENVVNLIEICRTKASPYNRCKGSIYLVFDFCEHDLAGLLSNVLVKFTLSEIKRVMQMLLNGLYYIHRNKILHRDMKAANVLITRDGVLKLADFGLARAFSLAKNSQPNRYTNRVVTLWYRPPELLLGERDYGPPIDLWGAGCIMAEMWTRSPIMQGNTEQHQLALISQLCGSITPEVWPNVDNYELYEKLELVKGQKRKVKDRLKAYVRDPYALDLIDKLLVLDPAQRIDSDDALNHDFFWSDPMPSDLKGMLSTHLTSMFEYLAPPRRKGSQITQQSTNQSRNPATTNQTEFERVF
T2 sequence (O60563 whole entry partner): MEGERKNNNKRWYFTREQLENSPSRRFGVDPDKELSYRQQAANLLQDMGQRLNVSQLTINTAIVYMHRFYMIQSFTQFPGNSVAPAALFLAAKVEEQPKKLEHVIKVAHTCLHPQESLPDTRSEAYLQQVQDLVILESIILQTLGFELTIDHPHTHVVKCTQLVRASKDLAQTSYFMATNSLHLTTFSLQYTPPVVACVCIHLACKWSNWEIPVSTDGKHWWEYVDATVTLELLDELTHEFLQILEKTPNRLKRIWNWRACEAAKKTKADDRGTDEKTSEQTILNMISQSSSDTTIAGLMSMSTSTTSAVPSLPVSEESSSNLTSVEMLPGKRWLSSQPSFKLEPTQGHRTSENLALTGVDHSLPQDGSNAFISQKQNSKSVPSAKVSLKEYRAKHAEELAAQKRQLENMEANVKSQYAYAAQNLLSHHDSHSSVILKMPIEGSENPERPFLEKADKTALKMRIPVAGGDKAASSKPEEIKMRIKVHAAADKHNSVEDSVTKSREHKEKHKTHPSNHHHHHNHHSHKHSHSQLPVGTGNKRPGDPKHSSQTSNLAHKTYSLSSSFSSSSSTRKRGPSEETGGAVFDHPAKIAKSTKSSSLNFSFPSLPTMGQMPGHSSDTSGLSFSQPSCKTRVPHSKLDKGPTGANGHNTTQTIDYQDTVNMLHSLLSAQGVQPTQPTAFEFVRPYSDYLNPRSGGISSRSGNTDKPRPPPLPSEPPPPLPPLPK
T5 sequence (P50613 whole entry): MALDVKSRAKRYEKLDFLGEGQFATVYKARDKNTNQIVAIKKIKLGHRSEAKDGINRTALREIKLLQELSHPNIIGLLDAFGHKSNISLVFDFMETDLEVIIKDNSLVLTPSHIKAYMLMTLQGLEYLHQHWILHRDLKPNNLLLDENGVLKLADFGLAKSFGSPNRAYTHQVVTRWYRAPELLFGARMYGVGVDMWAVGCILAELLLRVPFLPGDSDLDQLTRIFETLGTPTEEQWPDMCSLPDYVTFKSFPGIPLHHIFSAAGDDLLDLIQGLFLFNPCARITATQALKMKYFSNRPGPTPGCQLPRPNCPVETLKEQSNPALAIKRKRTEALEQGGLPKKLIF
T5 sequence (P51946 whole entry partner): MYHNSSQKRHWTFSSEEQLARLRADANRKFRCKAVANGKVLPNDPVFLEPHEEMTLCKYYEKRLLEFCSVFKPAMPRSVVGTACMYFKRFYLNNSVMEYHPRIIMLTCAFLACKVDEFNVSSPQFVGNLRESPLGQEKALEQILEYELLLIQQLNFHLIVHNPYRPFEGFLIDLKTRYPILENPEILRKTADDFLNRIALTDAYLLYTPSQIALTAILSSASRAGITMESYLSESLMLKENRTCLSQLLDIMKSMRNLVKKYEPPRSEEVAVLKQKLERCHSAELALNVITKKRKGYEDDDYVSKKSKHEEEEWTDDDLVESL
T5 sequence (P51948 whole entry partner): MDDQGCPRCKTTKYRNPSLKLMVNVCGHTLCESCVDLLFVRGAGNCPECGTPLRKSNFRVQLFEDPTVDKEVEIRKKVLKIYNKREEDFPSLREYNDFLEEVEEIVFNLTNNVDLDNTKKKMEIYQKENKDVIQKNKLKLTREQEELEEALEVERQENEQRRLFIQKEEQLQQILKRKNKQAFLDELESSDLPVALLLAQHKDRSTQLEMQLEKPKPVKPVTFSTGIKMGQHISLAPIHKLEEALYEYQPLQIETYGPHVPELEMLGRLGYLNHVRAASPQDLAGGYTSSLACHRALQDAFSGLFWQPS

SMILES | IC50 [1] | IC50 [2] | IC50 [3] | IC50 [4] | IC50 [5] | IC50 [6]
O=C(c1sc2cnc(Nc3ccc(N4CCNCC4)cn3)cc2c1C1CCCC1)N1CCC1 [Compound A8, azetidin-1-yl(3-cyclopentyl-5-((5-(piperazin-1-yl)pyridin-2-yl)amino)thieno[2,3-c]pyridin-2-yl)methanone] | 31 nM | 552 nM | 84 nM | – | – | –
CN(C)C(=O)c1sc2cnc(Nc3ccc(N4CCNCC4)cn3)cc2c1C1CCOC1 (stereo not shown) [Compound A13, N,N-dimethyl-5-((5-(piperazin-1-yl)pyridin-2-yl)amino)-3-(tetrahydrofuran-3-yl)thieno[2,3-c]pyridine-2-carboxamide] | 34 nM | – | 25 nM | – | – | –
N#CC1CN(C(=O)c2sc3cnc(Nc4ccc(N5CCNCC5)cn4)cc3c2C2CCCC2)C1 [Compound A9, 1-(3-cyclopentyl-5-((5-(piperazin-1-yl)pyridin-2-yl)amino)thieno[2,3-c]pyridine-2-carbonyl) azetidine-3-carbonitrile] | 5.3 nM | – | 3.3 nM | – | – | –
CC(C)c1c(C(=O)N(C)C)sc2cnc(Nc3ccc(N4CCNCC4)cn3)cc12 [Compound A15, 3-isopropyl-N,N-dimethyl-5-((5-(piperazin-1-yl)pyridin-2-yl)amino)thieno[2,3-c]pyridine-2-carboxamide] | 20.5 nM | – | 10.7 nM | – | – | –
N#Cc1sc2cnc(Nc3ccc(N4CCNCC4)cn3)cc2c1C1CCCC1 [Compound B1s, 3-cyclopentyl-5-((5-(piperazin-1-yl)pyridin-2-yl)amino)thieno[2,3-c]pyridine-2-carbonitrile hydrochloride] | 0.9 nM | 0.6 nM | – | 9.2 nM | 7.2 nM | 8.7 nM
CN(C)C(=O)c1sc2cnc(Nc3cccc(N4CCNCC4)c3)cc2c1C1CCCC1 [Compound A11, 3-cyclopentyl-N,N-dimethyl-5-((3-(piperazin-1-yl)phenyl)amino)thieno[2,3-c]pyridine-2-carboxamide] | 160 nM | 58 nM | 50 nM | – | – | –
O=C(c1sc2cnc(Nc3ccc(N4CCNCC4)cn3)cc2c1C1CCCC1)N1CCCC1 [Compound A17, (3-cyclopentyl-5-((5-(piperazin-1-yl)pyridin-2-yl)amino)thieno[2,3-c]pyridin-2-yl)(pyrrolidin-1-yl)methanone] | 12 nM | – | 20 nM | – | – | –
CN(C)C(=O)c1sc2cnc(Nc3ccc(N4CCN(C(=O)C(O)CO)CC4)cn3)cc2c1C1CCCC1 (stereo not shown) [Compound A14, 3-cyclopentyl-5-((5-(4-(2,3-dihydroxypropanoyl)piperazin-1-yl)pyridin-2-yl)amino)-N,N-dimethylthieno[2,3-c]pyridine-2-carboxamide] | 2.9 nM | 4.2 nM | 2.1 nM | 67.7 nM | – | 273 nM
CN(C)C(=O)c1sc2cnc(Nc3ccc(N4CCNCC4)cn3)cc2c1C1CCC1 [Compound A4, 3-cyclobutyl-N,N-dimethyl-5-((5-(piperazin-1-yl)pyridin-2-yl)amino)thieno[2,3-c]pyridine-2-carboxamide] | 4.6 nM | – | 2.1 nM | – | – | –
Cc1c(C(=O)N(C)C)sc2cnc(Nc3ccc(N4CCNCC4)cn3)cc12 [Compound A3, N,N,3-trimethyl-5-((5-(piperazin-1-yl)pyridin-2-yl)amino)thieno[2,3-c]pyridine-2-carboxamide] | 413 nM | 420 nM | 174 nM | – | – | –

Continued, values first:

IC50 [1] | IC50 [2] | IC50 [3] | IC50 [4] | IC50 [5] | IC50 [6] | SMILES
4.7 nM | – | 6.4 nM | – | – | – | CN(C)C(=O)c1sc2cnc(Nc3ccc(N4CCNCC4)cn3)cc2c1C1CC2CC2C1 (stereo not shown) [Compound A7, 3-(bicyclo[3.1.0]hexan-3-yl)-N,N-dimethyl-5-((5-(piperazin-1-yl)pyridin-2-yl)amino)thieno[2,3-c]pyridine-2-carboxamide]
22 nM | – | 18 nM | – | – | – | O=C(c1sc2cnc(Nc3ccc(N4CCNCC4)cn3)cc2c1C1CCCC1)N1CC(O)C1 [Compound A19, (3-cyclopentyl-5-((5-(piperazin-1-yl)pyridin-2-yl)amino)thieno[2,3-c]pyridin-2-yl)(3-hydroxyazetidin-1-yl)methanone]
32.1 nM | 24 nM | 21 nM | – | – | – | CN(C)C(=O)c1sc2cnc(Nc3ccc(N4CCNCC4)cn3)cc2c1C1CC1 [Compound A16, 3-cyclopropyl-N,N-dimethyl-5-((5-(piperazin-1-yl)pyridin-2-yl)amino)thieno[2,3-c]pyridine-2-carboxamide]
29 nM | – | 20 nM | 1110 nM | – | 3680 nM | CN(C)C(=O)c1sc2cnc(Nc3ccc(N4CCNCC4)cn3)cc2c1C1CCC(F)(F)C1 (stereo not shown) [Compound A12, 3-(3,3-difluorocyclopentyl)-N,N-dimethyl-5-((5-(piperazin-1-yl)pyridin-2-yl)amino)thieno[2,3-c]pyridine-2-carboxamide]
262 nM | 106 nM | 168 nM | – | – | – | CN(C)C(=O)c1sc2cnc(Nc3cccc(N4CCOCC4)c3)cc2c1C1CCCC1 [Compound A10, 3-cyclopentyl-N,N-dimethyl-5-((3-morpholinophenyl)amino)thieno[2,3-c]pyridine-2-carboxamide]
5 nM | – | 2.3 nM | – | – | – | CN(C)C(=O)c1sc2cnc(Nc3ccc(N4CCNCC4)cn3)cc2c1C1=CCCC1 [Compound A2, 3-(cyclopent-1-en-1-yl)-N,N-dimethyl-5-((5-(piperazin-1-yl)pyridin-2-yl)amino)thieno[2,3-c]pyridine-2-carboxamide]
3.7 nM | 5.2 nM | 2.1 nM | 124 nM | – | 501 nM | COC1(c2c(C(=O)N(C)C)sc3cnc(Nc4ccc(N5CCNCC5)cn4)cc23)CCCC1 [Compound A6, 3-(1-methoxycyclopentyl)-N,N-dimethyl-5-((5-(piperazin-1-yl)pyridin-2-yl)amino)thieno[2,3-c]pyridine-2-carboxamide]
60 nM | – | 262 nM | – | – | – | CC1(C)CN(C(=O)c2sc3cnc(Nc4ccc(N5CCNCC5)cn4)cc3c2C2CCCC2)C1 [Compound A18, (3-cyclopentyl-5-((5-(piperazin-1-yl)pyridin-2-yl)amino)thieno[2,3-c]pyridin-2-yl)(3,3-dimethylazetidin-1-yl)methanone]
